Assay results taken from patent US20120022058A1, “4,5-DIHYDRO-1H-PYRAZOLE COMPOUNDS AND THEIR PHARMACEUTICAL USES” (Pfizer Inc., priority 2009, published 2012).

molecular target: T1, MR (Homo sapiens, UniProt P08235); experiment: Cell-Based Reporter Assay (Gal4 DBD-MR LBD luciferase reporter, antagonist mode); conditions: antagonist mode vs aldosterone at EC80; transfected human liver cells (Huh7); luciferase readout; Examples 3, 6, 12 and 13 tested in analogous format with minor variations;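 note: cells co-transfected with a Gal4 response element luciferase plasmid, compound exposure overnight before lysis and luminescence counting, IC50 reflects reduced aldosterone-stimulated reporter signal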
T1 construct: expressed in transfected cells; host or cells: Huh7 human liver cells, transient transfection
T1 sequence (P08235 726-964 limits assumed): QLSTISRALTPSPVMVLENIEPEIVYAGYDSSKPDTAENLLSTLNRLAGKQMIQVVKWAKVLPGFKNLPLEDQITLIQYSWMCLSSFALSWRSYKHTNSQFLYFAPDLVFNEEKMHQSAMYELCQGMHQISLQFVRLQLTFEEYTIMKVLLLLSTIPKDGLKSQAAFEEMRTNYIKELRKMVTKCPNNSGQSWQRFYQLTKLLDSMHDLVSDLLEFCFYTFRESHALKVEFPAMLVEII

Row | SMILES | IC50
1 | COC(=O)c1ccc(C2=NN(c3ccc(C#N)c(C)c3)C(C3CCCC3)C2)nc1OC (centres unmarked) [Example 1, Methyl 6-(1-(4-cyano-3-methylphenyl)-5-cyclopentyl-4,5-dihydro-1H-pyrazol-3-yl)-2-methoxynicotinate] | 34.6 nM
2 | COC(=O)c1ccc(C2=NN(c3ccc(C#N)c(C)c3)[C@@H](C3CCCC3)C2)nc1OC [Example 2] | 9.2 nM
3 | COc1cc(N2N=C(c3ccc(C(=O)O)c(OC)n3)CC2C2CCCC2)ccc1C#N (centres unmarked) [Example 6, 6-[1-(4-cyano-3-methoxy-phenyl)-5-cyclopentyl-4,5-dihydro-1H-pyrazol-3-yl]-2-methoxy-nicotinic acid] | 9 nM
4 | COc1cc(C2=NN(c3ccc(C#N)c(Cl)c3)[C@@H](C3CCCC3)C2)ncc1C(=O)O [Example 13, (R)-6-(1-(3-chloro-4-cyanophenyl)-5-cyclopentyl-4,5-dihydro-1H-pyrazol-3-yl)-4-methoxynicotinic acid] | 2000 nM
5 | COC(=O)c1ccc(C2=NN(c3ccc(C#N)c(C)n3)[C@@H](C3CCCC3)C2)cc1 [Example 14, (R)-methyl 4-(1-(5-cyano-6-methylpyridin-2-yl)-5-cyclopentyl-4,5-dihydro-1H-pyrazol-3-yl)benzoate] | > 2260 nM
6 | Cc1nc(N2N=C(c3ccc(C(N)=O)cc3)C[C@@H]2C2CCCC2)ccc1C#N [Example 16, (R)-4-(1-(5-cyano-6-methylpyridin-2-yl)-5-cyclopentyl-4,5-dihydro-1H-pyrazol-3-yl)benzamide] | 13.4 nM
7 | Cc1nc(N2N=C(c3ccc(S(C)(=O)=O)cc3)C[C@@H]2C2CCCC2)ccc1C#N [Example 17, (R)-6-(5-cyclopentyl-3-(4-(methylsulfonyl)phenyl)-4,5-dihydro-1H-pyrazol-1-yl)-2-methylnicotinonitrile] | 8.4 nM
8 | Cc1nc(N2N=C(c3ccc4ncn(C)c(=O)c4c3)C[C@@H]2C2CCCC2)ccc1C#N [Example 18, (R)-6-(5-cyclopentyl-3-(3-methyl-4-oxo-3,4-dihydroquinazolin-6-yl)-4,5-dihydro-1H-pyrazol-1-yl)-2-methylnicotinonitrile] | 1.9 nM
9 | Cc1nc(N2N=C(c3ccc4c(c3)NC(=O)CO4)C[C@@H]2C2CCCC2)ccc1C#N [Example 19, (R)-6-(5-cyclopentyl-3-(3-oxo-3,4-dihydro-2H-benzo[b][1,4]oxazin-6-yl)-4,5-dihydro-1H-pyrazol-1-yl)-2-methylnicotinonitrile] | 10.8 nM
10 | Cc1nc(N2N=C(c3ccc(S(N)(=O)=O)cc3)C[C@@H]2C2CCCC2)ccc1C#N [Example 20, (R)-4-(1-(5-cyano-6-methylpyridin-2-yl)-5-cyclopentyl-4,5-dihydro-1H-pyrazol-3-yl)benzenesulfonamide] | 19.7 nM
11 | Cc1nc(N2N=C(c3cccc(S(C)(=O)=O)c3)C[C@@H]2C2CCCC2)ccc1C#N [Example 21, (R)-6-(5-cyclopentyl-3-(3-(methylsulfonyl)phenyl)-4,5-dihydro-1H-pyrazol-1-yl)-2-methylnicotinonitrile] | 105 nM
12 | CCS(=O)(=O)c1ccc(C2=NN(c3ccc(C#N)c(C)n3)[C@@H](C3CCCC3)C2)cc1 [Example 22, (R)-6-(5-cyclopentyl-3-(4-(ethylsulfonyl)phenyl)-4,5-dihydro-1H-pyrazol-1-yl)-2-methylnicotinonitrile] | 13.5 nM
13 | Cc1cc(C2=NN(c3ccc(C#N)c(C)n3)[C@@H](C3CCCC3)C2)ccc1C#N [Example 23, (R)-6-(3-(4-cyano-3-methylphenyl)-5-cyclopentyl-4,5-dihydro-1H-pyrazol-1-yl)-2-methylnicotinonitrile] | 113 nM
14 | Cc1cc(C2=NN(c3ccc(C#N)c(C)n3)[C@@H](C3CCCC3)C2)ccc1C(N)=O [Example 24, (R)-4-(1-(5-cyano-6-methylpyridin-2-yl)-5-cyclopentyl-4,5-dihydro-1H-pyrazol-3-yl)-2-methylbenzamide] | 25 nM
15 | Cc1nc(N2N=C(c3ccc(NS(C)(=O)=O)cc3)C[C@@H]2C2CCCC2)ccc1C#N [Example 25, (R)—N-(4-(1-(5-cyano-6-methylpyridin-2-yl)-5-cyclopentyl-4,5-dihydro-1H-pyrazol-3-yl)phenyl)methanesulfonamide] | 48.4 nM
16 | COc1cc(C2=NN(c3ccc(C#N)c(C)n3)[C@@H](C3CCCC3)C2)ccc1C#N [Example 26, (R)-6-(3-(4-cyano-3-methoxyphenyl)-5-cyclopentyl-4,5-dihydro-1H-pyrazol-1-yl)-2-methylnicotinonitrile] | 85.3 nM
17 | COc1cc(C2=NN(c3ccc(C#N)c(C)n3)[C@@H](C3CCCC3)C2)ccc1C(N)=O [Example 27] | 5.2 nM
18 | COc1cccc(C2=NN(c3ccc(C#N)c(C)n3)[C@@H](C3CCCC3)C2)n1 [Example 28, (R)-6-(5-cyclopentyl-3-(6-methoxypyridin-2-yl)-4,5-dihydro-1H-pyrazol-1-yl)-2-methylnicotinonitrile] | 97.6 nM
19 | Cc1nc(N2N=C(c3cccc(C(N)=O)c3)C[C@@H]2C2CCCC2)ccc1C#N [Example 29, (R)-3-(1-(5-cyano-6-methylpyridin-2-yl)-5-cyclopentyl-4,5-dihydro-1H-pyrazol-3-yl)benzamide] | 30.6 nM

Second part, the compound after the results:

Row | IC50 | SMILES
20 | 9.7 nM | Cc1nc(N2N=C(c3ccc4c(c3)CNC4=O)C[C@@H]2C2CCCC2)ccc1C#N [Example 30, (R)-6-(5-cyclopentyl-3-(1-oxoisoindolin-5-yl)-4,5-dihydro-1H-pyrazol-1-yl)-2-methylnicotinonitrile]
21 | 11.2 nM | Cc1nc(N2N=C(c3ccc4c(c3)C(=O)NC4)C[C@@H]2C2CCCC2)ccc1C#N [Example 31, (R)-6-(5-cyclopentyl-3-(3-oxoisoindolin-5-yl)-4,5-dihydro-1H-pyrazol-1-yl)-2-methylnicotinonitrile]
22 | 8.9 nM | COC(=O)c1cc(C2=NN(c3ccc(C#N)c(C)n3)[C@@H](C3CCCC3)C2)ccc1S(C)(=O)=O [Example 35, (R)-methyl 5-(1-(5-cyano-6-methylpyridin-2-yl)-5-cyclopentyl-4,5-dihydro-1H-pyrazol-3-yl)-2-(methylsulfonyl)benzoate]
23 | 225 nM | COc1ccc(C2=NN(c3ccc(C#N)c(C)n3)[C@@H](C3CCCC3)C2)cc1C(=O)O [Example 36, (R)-5-(1-(5-cyano-6-methylpyridin-2-yl)-5-cyclopentyl-4,5-dihydro-1H-pyrazol-3-yl)-2-methoxybenzoic acid]
24 | 82.2 nM | COC(=O)c1ccc(C2=NN(c3ccc(C#N)c(C)n3)[C@@H](C3CCCC3)C2)c(OC)c1 [Example 38, (R)-methyl 4-(1-(5-cyano-6-methylpyridin-2-yl)-5-cyclopentyl-4,5-dihydro-1H-pyrazol-3-yl)-3-methoxybenzoate]
25 | 7 nM | COc1cc(C(=O)O)ccc1C1=NN(c2ccc(C#N)c(C)n2)[C@@H](C2CCCC2)C1 [Example 39, (R)-methyl 4-(1-(5-cyano-6-methylpyridin-2-yl)-5-cyclopentyl-4,5-dihydro-1H-pyrazol-3-yl)-3-methoxybenzoic acid]
26 | 9.1 nM | CCOc1cc(C2=NN(c3ccc(C#N)c(C)n3)[C@@H](C3CCCC3)C2)ccc1C(=O)O [Example 41, (R)-4-(1-(5-cyano-6-methylpyridin-2-yl)-5-cyclopentyl-4,5-dihydro-1H-pyrazol-3-yl)-2-ethoxybenzoic acid]
27 | 5 nM | CCOc1cc(C2=NN(c3ccc(C#N)c(C)n3)[C@@H](C3CCCC3)C2)ccc1C(N)=O [Example 42, (R)-4-(1-(5-cyano-6-methylpyridin-2-yl)-5-cyclopentyl-4,5-dihydro-1H-pyrazol-3-yl)-2-ethoxybenzamide]
28 | 130 nM | COc1cccc(C2=NN(c3ccc(C#N)c(C)n3)[C@@H](C3CCCC3)C2)c1 [Example 43, (R)-6-(5-cyclopentyl-3-(3-methoxyphenyl)-4,5-dihydro-1H-pyrazol-1-yl)-2-methylnicotinonitrile]
29 | 20.6 nM | Cc1nc(N2N=C(c3ccc4c(c3)CCC(=O)N4)C[C@@H]2C2CCCC2)ccc1C#N [Example 45, (R)-6-(5-cyclopentyl-3-(2-oxo-1,2,3,4-tetrahydroquinolin-6-yl)-4,5-dihydro-1H-pyrazol-1-yl)-2-methylnicotinonitrile]
30 | 42 nM | Cc1nc(N2N=C(c3ccc4c(c3)OCC(=O)N4)C[C@@H]2C2CCCC2)ccc1C#N [Example 46, (R)-6-(5-cyclopentyl-3-(3-oxo-3,4-dihydro-2H-benzo[b][1,4]oxazin-7-yl)-4,5-dihydro-1H-pyrazol-1-yl)-2-methylnicotinonitrile]
31 | 12 nM | Cc1nc(N2N=C(c3ccc4c(c3)CNC(=O)N4)C[C@@H]2C2CCCC2)ccc1C#N [Example 47, (R)-6-(5-cyclopentyl-3-(2-oxo-1,2,3,4-tetrahydroquinazolin-6-yl)-4,5-dihydro-1H-pyrazol-1-yl)-2-methylnicotinonitrile]
32 | 8.2 nM | CCOc1nc(C2=NN(c3ccc(C#N)c(C)n3)[C@@H](C3CCCC3)C2)ccc1C(=O)O [Example 51, (R)-6-(1-(5-cyano-6-methylpyridin-2-yl)-5-cyclopentyl-4,5-dihydro-1H-pyrazol-3-yl)-2-ethoxynicotinic acid]
33 | 62.3 nM | COc1cc(C2=NN(c3ccc(C#N)c(C)n3)[C@@H](C3CCCC3)C2)ccc1O [Example 52, (R)-6-(5-cyclopentyl-3-(4-hydroxy-3-methoxyphenyl)-4,5-dihydro-1H-pyrazol-1-yl)-2-methylnicotinonitrile]
34 | 95.7 nM | COc1cc(C2=NN(c3ccc(C#N)c(C)n3)[C@@H](C3CCCC3)C2)ccc1CC(=O)O [Example 54, (R)-2-(4-(1-(5-cyano-6-methylpyridin-2-yl)-5-cyclopentyl-4,5-dihydro-1H-pyrazol-3-yl)-2-methoxyphenyl)acetic acid]
35 | 3.9 nM | CCOc1nc(C2=NN(c3ccc(C#N)c(C)c3)[C@@H](C3CCCC3)C2)ccc1C(N)=O [Example 55, (R)-6-(1-(4-cyano-3-methylphenyl)-5-cyclopentyl-4,5-dihydro-1H-pyrazol-3-yl)-2-ethoxynicotinamide]
